Measured values: patent US12018033B2, “Inhibitors of protein arginine deiminases” (Forward Therapeutics, Inc., priority 2018, dated 2024)

Target: T1, Recombinant human PAD4 (2-663) (Homo sapiens, UniProt Q9UM07)
T1 construct: Recombinant human PAD4 (2-663) was expressed in E. coli; made in house; host or cells: E. coli
Test: PAD4 Inhibition Assay
Assay type: biochemical
Conditions: 60 mins pre-incubation at RT; substrate BAEE with CaCl2; fluorescent signal (λex 405/λem 460)
Description: Protein: Recombinant human PAD4 (2-663) was expressed in E. coli as an N-terminal Strep-tag and C-terminal 6-his tag fusion protein. Protein was purified using Strep-tactin resin followed by size exclusion chromatography. Tags were not removed during purification. Activity of the protein was determined using ammonia quantification assay.
PAD4 enzyme (10 μL) was diluted to concentration of 75 nM in assay buffer A (100 mM HEPES, pH 8, 50 mM NaCl, 2 mM DTT, 0.6 mg/mL BSA and 0.5% DMSO) and added to wells containing 10 μL of various concentrations of test compound, or DMSO vehicle in buffer A with 1.5% final DMSO concentration in a Corning high volume 384 well black plate. Following 60 mins pre-incubation at RT with gentle shaking, the reaction was initiated by the addition of 10 μL of substrate buffer containing 3 mM N-α-benzoyl-L-arginine ethyl ester (BAEE) and 600 μM CaCl2) in assay buffer A. The reaction was stopped after 60 mins with the addition of 15 μL stop/detection buffer containing 7.5 mM phthalaldehyde, 50 mM EDTA and 7.5 mM DTT in assay buffer A. Quenched reactions were incubated at RT for 45 mins before measuring fluorescent signal (λex 405/λem 460) on an Envision plate reader (Perkin Elmer Life Sciences, Waltham, Mass., USA).

T1 sequence (Q9UM07 2-663): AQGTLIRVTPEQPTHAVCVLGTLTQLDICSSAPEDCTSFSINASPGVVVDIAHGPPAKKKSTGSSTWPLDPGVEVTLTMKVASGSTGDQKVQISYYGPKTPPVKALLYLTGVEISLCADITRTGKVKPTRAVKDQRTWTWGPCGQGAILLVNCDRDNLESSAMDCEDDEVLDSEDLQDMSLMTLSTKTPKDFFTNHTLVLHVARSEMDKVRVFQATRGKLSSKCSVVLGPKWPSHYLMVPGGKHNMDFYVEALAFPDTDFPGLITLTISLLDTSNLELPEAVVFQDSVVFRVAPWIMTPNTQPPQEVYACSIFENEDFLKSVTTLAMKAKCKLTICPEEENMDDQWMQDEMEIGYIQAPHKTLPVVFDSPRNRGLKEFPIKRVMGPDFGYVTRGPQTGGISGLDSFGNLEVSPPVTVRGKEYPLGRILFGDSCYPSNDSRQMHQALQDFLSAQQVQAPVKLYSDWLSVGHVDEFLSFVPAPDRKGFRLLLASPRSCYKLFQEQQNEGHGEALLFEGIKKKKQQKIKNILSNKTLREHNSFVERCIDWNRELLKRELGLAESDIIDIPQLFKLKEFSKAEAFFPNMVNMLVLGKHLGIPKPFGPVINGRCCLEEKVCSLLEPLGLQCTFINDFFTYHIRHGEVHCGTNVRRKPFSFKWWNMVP

Row | Compound | IC50 [µM]
1 | CN(C(=O)c1cc2cc(Cl)c(F)c(F)c2[nH]1)[C@H]1CCNC1 [Example 51, (S)-5-chloro-6,7-difluoro-N-methyl-N-(pyrrolidin-3-yl)-1H-indole-2-carboxamide] | 10 to 100
2 | O=C(N[C@H]1CNC[C@@H]1O)c1cc2cc(Cl)c(F)c(F)c2[nH]1 [Example 18, 5-Chloro-6,7-difluoro-N-((3S,4S)-4-hydroxypyrrolidin-3-yl)-1H-indole-2-carboxamide] | 10 to 100
3 | N[C@@H]1CCN(C(=O)c2cc3cc(F)c(Cl)c(F)c3[nH]2)C1 [Example 4, (R)-(3-Aminopyrrolidin-1-yl)(6-chloro-5,7-difluoro-1H-indol-2-yl)methanone] | 1 to 10
4 | N[C@H]1CN(C(=O)c2cc3cc(Br)c(F)c(F)c3[nH]2)C[C@H]1O [Example 67, ((3S,4R)-3-amino-4-hydroxypyrrolidin-1-yl)(5-bromo-6,7-difluoro-1H-indol-2-yl)methanone] | 1 to 10
5 | N[C@@H]1CCN(C(=O)c2cc3cc(Cl)cc(Cl)c3[nH]2)C1 [Example 45, (R)-(3-Aminopyrrolidin-1-yl)(5,7-dichloro-1H-indol-2-yl)methanone] | 10 to 100
6 | O=C(NC1CNC1)c1cc2cc(Cl)c(F)c(F)c2[nH]1 [Example 23, N-(Azetidin-3-yl)-5-chloro-6,7-difluoro-1H-indole-2-carboxamide] | ≤ 1
7 | C[C@@H]1CNC[C@@H]1NC(=O)c1cc2cc(Cl)c(F)c(F)c2[nH]1 [Example 20, 5-Chloro-6,7-difluoro-N-((3R,4R)-4-methylpyrrolidin-3-yl)-1H-indole-2-carboxamide] | ≤ 1
8 | C[C@H]1CNC[C@@H]1NC(=O)c1cc2cc(Cl)c(F)c(F)c2[nH]1 [Example 36, 5-Chloro-6,7-difluoro-N-((3R,4S)-4-methylpyrrolidin-3-yl)-1H-indole-2-carboxamide] | 1 to 10
9 | N[C@H]1CN(C(=O)c2cc3cc(Cl)c(F)c(F)c3[nH]2)C[C@H]1O [Example 32, ((3S,4R)-3-Amino-4-hydroxypyrrolidin-1-yl)(5-chloro-6,7-difluoro-1H-indol-2-yl)methanone] | 1 to 10
10 | N[C@@H]1CCN(C(=O)c2cc3ccc(Cl)cc3[nH]2)C1 [Example 46, (R)-(3-Aminopyrrolidin-1-yl)(6-chloro-1H-indol-2-yl)methanone] | 1 to 10
